Experimental data as given in US20260363244A1, “HERBICIDAL COMPOSITIONS COMPRISING URACILS” (BASF SE, priority 2022, published 2026).
Read-outs that look alike come from different tables or passages of the source.

Columns and labels:
Type in all cases: in vivo
Abutilon theophrasti = experiment: greenhouse post-emergence herbicidal activity, ABUTH; conditions: read-out: % activity (solo application); for activity at 0.4 g/ha: 0.4 gai/ha; for activity at 0.8 g/ha: 0.8 gai/ha
Experimental: (§1) The following examples serve to illustrate the invention.
(§2) The culture containers used were plastic pots containing loamy sand with approximately 3.0% of humus as substrate. The seeds of the test plants were sown separately for each species.
(§3) For the post-emergence treatment, the test plants were grown to a plant height of from 3 to 15 cm, depending on the plant habit, and only then treated with the active compounds which had been suspended or emulsified in water. To this end, the test plants were either sown directly, and grown in the same containers, or they were first grown separately as seedlings and transplanted into the test containers a few days prior to treatment.
(§4) Depending on the species, the plants were kept at 10-25 °C and 20-35 °C, respectively. The test period extended over 2 to 4 weeks. During this time, the plants were tended and their response to the individual treatments was evaluated.
(§5) Evaluation was carried out using a scale from 0 to 100. 100 means no emergence of the plants, or complete destruction of at least the above-ground parts, and 0 means no damage or normal course of growth. A good herbicidal activity is given at values of at least 70, and very good herbicidal activity is given at values of at least 85.
(§6) The respective stated components A and B, and if appropriate, C were formulated as a 5% by weight strength emulsion concentrate and, with addition of the amount of solvent system, introduced into the spray liquor used for applying the active compound. In the examples, the solvent used was water.
(§7) In the examples below, using the method of S. R. Colby (1967) “Calculating synergistic and antagonistic responses of herbicide combinations”, Weeds 15, p. 22ff., the value E, which is expected if the activity of the individual active compounds is only additive, was calculated.
(§8) E=X+Y−(X·Y/100) • where • X=percent activity using active compound A at an application rate a; • Y=percent activity using active compound B at an application rate b; • E=expected activity (in %) by A+B at application rates a+b.
(§9) The plants used in the greenhouse experiments were of the following species
(§10) In this context, a.i. means active ingredient, based on 100% active ingredient.
(§11) As indicated the application was post emergent (POST) at the respective growth stage (GS) of the weed.
(§12) Assessment was at the indicated days after treatment (DAT).

Amaranthus tamariscinus = experiment: greenhouse post-emergence herbicidal activity, AMATA; conditions: read-out: % activity (solo application); for activity at 0.4 g/ha: 0.4 gai/ha
Experimental: as §1, §2, §3, §4, §5, §6, §7, §8, §9, §10, §11, §12

Avena fatua = experiment: greenhouse post-emergence herbicidal activity, AVEFA; conditions: read-out: % activity (solo application); for activity at 0.4 g/ha: 0.4 gai/ha
Experimental: as §1, §2, §3, §4, §5, §6, §7, §8, §9, §10, §11, §12

Brachiaria decumbens = experiment: greenhouse post-emergence herbicidal activity, BRADC; conditions: for activity at […]: Urochloa decumbens, post-emergence, read-out: % activity (solo application)
Experimental: as §1, §2, §3, §4, §5, §6, §7, §8, §9, §10, §11, §12

Commenline benghalensis = experiment: greenhouse post-emergence herbicidal activity, COMBE; conditions: read-out: % activity (solo application); for activity at […]: 168 h, GS 11-33, 7 DAT
Experimental: as §1, §2, §3, §4, §5, §6, §7, §8, §9, §10, §11, §12

Digitaria sanguinales = experiment: greenhouse post-emergence herbicidal activity, DIGSA
Experimental: as §1, §2, §3, §4, §5, §6, §7, §8, §9, §10, §11, §12

Echinocloa crus-galli = experiment: greenhouse post-emergence herbicidal activity, ECHCG; conditions: for activity at 0.4 g/ha: Echinochloa crus-galli, post-emergence, 0.4 gai/ha, read-out: % activity (solo application); for % activity: solo application, ECHCG
Experimental: as §1, §2, §3, §4, §5, §6, §7, §8, §9, §10, §11, §12

Eleusine indica = experiment: greenhouse post-emergence herbicidal activity, ELEIN; conditions: read-out: % activity (solo application); for activity at 0.4 g/ha: 0.4 gai/ha
Experimental: as §1, §2, §3, §4, §5, §6, §7, §8, §9, §10, §11, §12

Kochia scoparia = experiment: greenhouse post-emergence herbicidal activity, KCHSC; conditions: for activity at 0.4 g/ha: 0.4 gai/ha; for % activity: solo application, KCHSC
Experimental: as §1, §2, §3, §4, §5, §6, §7, §8, §9, §10, §11, §12

Lolium multiflorum = experiment: greenhouse post-emergence herbicidal activity, LOLMU; conditions: for activity at […]: Lolium multiflorum, post-emergence, 3.2 gai/ha, read-out: % activity (solo application)
Experimental: as §1, §2, §3, §4, §5, §6, §7, §8, §9, §10, §11, §12

Setaria faberi = experiment: greenhouse post-emergence herbicidal activity, SETFA; conditions: Setaria faberi, post-emergence, 480 h, GS 11-33, 20 DAT, read-out: % activity (solo application)
Experimental: as §1, §2, §3, §4, §5, §6, §7, §8, §9, §10, §11, §12

Setaria viridis = experiment: greenhouse post-emergence herbicidal activity, SETVI; conditions: for activity at 0.4 g/ha / activity at 0.8 g/ha / activity at […]: Setaria viridis, post-emergence, read-out: % activity (solo application); for activity at 0.4 g/ha: 0.4 gai/ha; for activity at 0.8 g/ha: 0.8 gai/ha; for % activity: solo application, SETVI
Experimental: as §1, §2, §3, §4, §5, §6, §7, §8, §9, §10, §11, §12

Sorghum halepense = experiment: greenhouse post-emergence herbicidal activity, SORHA; conditions: GS 11-33, 20 DAT
Experimental: as §1, §2, §3, §4, §5, §6, §7, §8, §9, §10, §11, §12

[1] = 168 h, GS 11-33, 7 DAT, 3.2 gai/ha
[2] = 480 h, GS 11-33, 20 DAT, 3.2 gai/ha
[3] = 480 h, GS 11-33, 20 DAT, 1.6 gai/ha
[4] = 192 h, GS 11-33, 8 DAT, 3.2 gai/ha
[5] = GS 11-33, 20 DAT, use rate 0.4 gai/ha

C=C[C@]1(C(=O)N[C@H]2CO[C@@H](C(=O)OC)C2)CC(c2cc(F)cc(F)c2)=NO1 (mixture of isomers) [ISOX-8, methyl (2RS,4RS)-4-({[(5S)-3-(3,5-difluorophenyl)-5-vinyl-4,5-dihydroisoxazol-5-yl]carbonyl}amino)tetrahydrofuran-2-carboxylate]
60%: activity at 0.4 g/ha (Avena fatua; 480 h, GS 11-33, 20 DAT) | activity at […] (Digitaria sanguinales; Digitaria, post-emergence, 480 h, GS 11-33, 20 DAT, 3.2 gai/ha, read-out: % activity (solo application)) | activity at […] (Kochia scoparia; Bassia scoparia, post-emergence, 480 h, GS 11-33, 20 DAT, 1.6 gai/ha, read-out: % activity (solo application)) | activity at […] (Setaria faberi; 1.6 gai/ha) | activity at […] (Sorghum halepense; Sorghum halepense, post-emergence, 480 h, 1.6 gai/ha, read-out: % activity (solo application))
15%: activity at […] (Abutilon theophrasti; [1]) | activity at 0.4 g/ha (Commenline benghalensis; 480 h, GS 11-33, 20 DAT, 0.4 gai/ha) | activity at 0.4 g/ha (Echinocloa crus-galli; 168 h, GS 11-33, 7 DAT)
70%: activity at […] (Avena fatua; [1]) | activity at […] (Eleusine indica; [2]) | activity at […] (Kochia scoparia; Bassia scoparia, post-emergence, 480 h, GS 11-33, 20 DAT, 3.2 gai/ha, read-out: % activity (solo application))
85%: activity at […] (Avena fatua; [3]) | activity at […] (Setaria viridis; [2]) | activity at […] (Sorghum halepense; Sorghum halepense, post-emergence, 480 h, 3.2 gai/ha, read-out: % activity (solo application))
20%: activity at […] (Abutilon theophrasti; [2]) | % activity (Brachiaria decumbens; solo application, BRADC, GS 11-33, 20 DAT, use rate 1.6 gai/ha) | activity at 0.4 g/ha (Setaria faberi; 0.4 gai/ha)
90%: activity at […] (Avena fatua; [2]) | activity at […] (Setaria faberi; 3.2 gai/ha)
25%: activity at 0.4 g/ha (Avena fatua; 168 h, GS 11-33, 7 DAT) | activity at […] (Brachiaria decumbens; 192 h, GS 11-33, 8 DAT, 1.6 gai/ha) | activity at 0.8 g/ha (Kochia scoparia; Bassia scoparia, post-emergence, 168 h, GS 11-33, 7 DAT, 0.8 gai/ha, isoxazolin, read-out: % activity (solo application)) | activity at 0.8 g/ha (Setaria viridis; 192 h, GS 11-33, 8 DAT) | activity at 0.8 g/ha (Setaria viridis; 480 h, GS 11-33, 20 DAT)
35%: activity at 0.4 g/ha (Amaranthus tamariscinus; 480 h, GS 11-33, 20 DAT) | % activity (Echinocloa crus-galli; GS 11-33, 20 DAT, use rate 0.8 gai/ha) | % activity (Sorghum halepense; solo application, SORHA, use rate 0.8 gai/ha)
55%: activity at […] (Kochia scoparia; Bassia scoparia, post-emergence, 168 h, GS 11-33, 7 DAT, 3.2 gai/ha, read-out: % activity (solo application)) | % activity (Kochia scoparia; GS 11-33, 7 DAT, use rate 3.2 gai/ha) | activity at 0.8 g/ha (Sorghum halepense; Sorghum halepense, post-emergence, 480 h, 0.8 gai/ha, isoxazolin, read-out: % activity (solo application))
5%: activity at 0.4 g/ha (Abutilon theophrasti; 168 h, GS 11-33, 7 DAT) | activity at 0.8 g/ha (Abutilon theophrasti; 168 h, GS 11-33, 7 DAT) | activity at 0.4 g/ha (Abutilon theophrasti; 480 h, GS 11-33, 20 DAT) | activity at 0.8 g/ha (Abutilon theophrasti; 480 h, GS 11-33, 20 DAT) | activity at 0.4 g/ha (Eleusine indica; 480 h, GS 11-33, 20 DAT)
30%: activity at […] (Brachiaria decumbens; [2])
80%: activity at […] (Lolium multiflorum; 480 h, GS 11-33, 20 DAT)
40%: activity at 0.4 g/ha (Amaranthus tamariscinus; 168 h, GS 11-33, 7 DAT) | activity at […] (Setaria viridis; [4]) | % activity (Setaria viridis; GS 11-33, 8 DAT, use rate 3.2 gai/ha)
45%: activity at […] (Commenline benghalensis; 1.6 gai/ha) | activity at […] (Commenline benghalensis; 3.2 gai/ha)
10%: activity at […] (Abutilon theophrasti; 168 h, GS 11-33, 7 DAT, 1.6 gai/ha) | activity at 0.4 g/ha (Digitaria sanguinales; Digitaria, post-emergence, 192 h, GS 11-33, 8 DAT, 0.4 gai/ha, read-out: % activity (solo application)) | % activity (Digitaria sanguinales; solo application, DIGSA, GS 11-33, 20 DAT, use rate 0.8 gai/ha) | activity at 0.4 g/ha (Echinocloa crus-galli; 480 h, GS 11-33, 20 DAT) | % activity (Echinocloa crus-galli; [5]) | activity at 0.4 g/ha (Eleusine indica; 168 h, GS 11-33, 7 DAT) | activity at 0.4 g/ha (Kochia scoparia; Bassia scoparia, post-emergence, 168 h, GS 11-33, 7 DAT, read-out: % activity (solo application)) | activity at 0.4 g/ha (Kochia scoparia; Bassia scoparia, post-emergence, 480 h, GS 11-33, 20 DAT, read-out: % activity (solo application)) | % activity (Kochia scoparia; [5]) | activity at 0.4 g/ha (Setaria viridis; 192 h, GS 11-33, 8 DAT) | activity at 0.4 g/ha (Setaria viridis; 480 h, GS 11-33, 20 DAT) | % activity (Setaria viridis; GS 11-33, 8 DAT, use rate 0.4 gai/ha)
75%: activity at 0.8 g/ha (Amaranthus tamariscinus; 480 h, GS 11-33, 20 DAT, 0.8 gai/ha)
50%: activity at […] (Brachiaria decumbens; [4]) | activity at […] (Lolium multiflorum; 168 h, GS 11-33, 7 DAT) | % activity (Lolium multiflorum; solo application, LOLMU, GS 11-33, 7 DAT, use rate 3.2 gai/ha) | activity at […] (Setaria viridis; [3])
